Molecules are shown by their SMILES. In brackets after ≈: the same amount, converted by molar mass. Counter-ions that a name gives are not always drawn. Some results are limits rather than exact numbers.

Common to all, as to type: cell-based
Test [1] relates to Staphylococcus aureus No. 87. Description: MIC against Staphylococcus aureus No. 87.
In a further test the test system is Sarcina lutea PCI 1001. Description: MIC against Sarcina lutea PCI 1001. As to conditions: Micrococcus luteus, PCI1001.
The subject of another test is Escherichia coli NIHJ. Description: MIC against Escherichia coli NIHJ.
Another test deals with Proteus vulgaris Eb51. Briefly: MIC against Proteus vulgaris Eb51.
For test [2], the system named is Staphylococcus aureus 209P. Briefly: MIC against Staphylococcus aureus 209P.
Test [3] deals with Bucillus subtilis PCI 219. Description: MIC against Bucillus subtilis PCI 219.
In the next test the test system is Proteus mirabilis Eb59. Briefly: MIC against Proteus mirabilis Eb59.
The next test relates to Klebsiella pneumoniae. Briefly: MIC against Klebsiella pneumoniae.
The test system of test [4] is Staphylococcus aureus 1840. Briefly: MIC against Staphylococcus aureus 1840.
The test system of another test is Proteus morganii Eb53. Briefly: MIC against Proteus morganii Eb53. The following applies: Morganella morganii.
For another test, the system named is Proteus vulgaris. Briefly: MIC against Proteus vulgaris (strain not given).

The term MIC denotes the least concentration at which growth counts as inhibited. The low end stands for inhibition by little substance, the high end for a need for much substance. For the compound `Cc1ccc(SCC2=C(C(=O)O)N3C(=O)C(NC(=O)[C@H](O)c4ccccc4)C3SC2)n[n+]1[O-]` (single isomer, unassigned) [Example 1, 7-[D-(-)-mandelamido]-3-[6'-(3'-methylpyridazinyl)thiomethyl] -3-cephem-4-carboxylic acid 2'-oxide sodium salt], the minimal inhibitory concentration (MIC) in test [1] is 5 µg/mL; against Sarcina lutea PCI 1001, 0.2 µg/mL; in the test on Escherichia coli NIHJ, 0.5 µg/mL; with Proteus vulgaris Eb51, 1 µg/mL; in test [2], 0.1 µg/mL; in [3], less than 0.01 µg/mL. In addition, in the test on Proteus mirabilis Eb59, it took 5 µg/mL to inhibit growth (MIC).

On to `COc1ccc(SCC2=C(C(=O)O)N3C(=O)C(NC(=O)[C@H](O)c4ccccc4)C3SC2)[n+]([O-])n1` (single isomer, unassigned) [Example 6, 7-[D-(-)-mandelamido]-3-[6'-(3'-methoxypyridazinyl)thiomethyl]-3-cephem-4-carboxylic acid 1'-oxide sodium salt], for which the MIC was 1.56 µg/mL against Klebsiella pneumoniae, 1.56 µg/mL with Escherichia coli NIHJ, 1.56 µg/mL in test [4] and less than 0.78 µg/mL in test [2].

Take `O=C(O)C1=C(CSc2ccc(Cl)n[n+]2[O-])CSC2C(NC(=O)[C@H](O)c3ccccc3)C(=O)N12` (single isomer, unassigned) [Example 7, 7-[D-(-)-mandelamido]-3-[6'-(3'-chloropyridazinyl)thiomethyl]-3-cephem-4-carboxylic acid 1'-oxide sodium salt]: the minimal inhibitory concentration (MIC) was less than 0.78 µg/mL against Klebsiella pneumoniae; 25 µg/mL against Proteus morganii Eb53; 3.12 µg/mL against Proteus vulgaris; 1.56 µg/mL in the test on Escherichia coli NIHJ; less than 1.56 µg/mL in test [4]; less than 0.78 µg/mL in test [2].

As to `Cc1ccc(SCC2=C(C(=O)O)N3C(=O)C(NC(=O)C[n+]4cc([O-])on4)C3SC2)n[n+]1[O-]` (stereo not shown) [Example 11, 7-[2'-(3'-sydnone)acetamido]-3-[6"-(3"-methylpyridazinyl)thiomethyl]-3-cephem-4-carboxylic acid 2"-oxide], the MIC was 1.56 µg/mL (≈ 3.25 µM) with Klebsiella pneumoniae, 1.56 µg/mL (≈ 3.25 µM) in the test with Escherichia coli NIHJ, 1.56 µg/mL (≈ 3.25 µM) in test [4] and less than 0.78 µg/mL in [2].

In the case of `O=C(C[n+]1cc([O-])on1)NC1C(=O)N2C(C(=O)O)=C(CSc3ccc(Cl)n[n+]3[O-])CSC12` (stereo not shown) [Example 12, 7-[2'-(3'-sydnone)acetamido]-3[6"-(3"-chloropyridazinyl)-thiomethyl]-3-cephem-4-carboxylic acid 1"-oxide sodium salt], the MIC was 1.56 µg/mL against Klebsiella pneumoniae, 1.56 µg/mL in the test with Escherichia coli NIHJ, 1.56 µg/mL in test [4] and less than 0.78 µg/mL in [2].

Turning to `COc1ccc(SCC2=C(C(=O)O)N3C(=O)C(NC(=O)C[n+]4cc([O-])on4)C3SC2)[n+]([O-])n1` (stereo not shown) [Example 13, 7-[2'-(3'-sydnone)acetamido]-3-[6"-(3"-methoxypyridazinyl)thiomethyl]-3-cephem-4-carboxylic acid 1"-oxide sodium salt], the MIC in the test on Klebsiella pneumoniae is 1.56 µg/mL; in test [4], 1.56 µg/mL; in test [2], less than 0.78 µg/mL.

For the origin of these results see patent US4008227A, “Cephalosporins” (Takeda Chemical Industries, Ltd., priority 1973, dated 1977).
